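Where inhibition never reached the appropriate level, the endpoint shown equals the highest concentration tested. Otherwise, values were interpolated linearly from a five-concentration, 48-hour dose response in 96-well plates. At the GI50, growth is halved.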 Activity calls are given as the source filed them. Rule as the data show it: active = GI50 up to about 1.1 µM and inactive = higher.
What was measured:
Assay in all cases: DTP human tumour cell line panel, 48 h
[1] = system: OVCAR-8
[2] = system: 786-0
[3] = system: NCI-H460
[4] = system: UACC-62
[5] = system: HL-60
[6] = system: HCC 2998
[7] = system: MDA-MB-435
[8] = system: SW-620
[9] = system: SK-OV-3
[10] = system: RXF 393
[11] = system: KM12
[12] = system: HOP-92
[13] = system: SF-539
[14] = system: MOLT-4
[15] = system: HCT-15
[16] = system: LOX IMVI
[17] = system: Hs-578T
[18] = system: SN12C
[19] = system: RPMI-8226
[20] = system: SNB-19

Structure (SMILES) | GI50 [1] | GI50 [2] | GI50 [3] | GI50 [4] | GI50 [5] | GI50 [6] | GI50 [7] | GI50 [8] | GI50 [9] | GI50 [10] | GI50 [11] | GI50 [12] | GI50 [13] | GI50 [14] | GI50 [15] [µM] | GI50 [16] | GI50 [17] | GI50 [18] | GI50 [19] | GI50 [20]
O=S(=O)(O)c1ccc(/N=N/c2ccccc2)cc1 | > 100 µM (inactive) | > 100 µM (inactive) | > 100 µM (inactive) | > 100 µM (inactive) | > 100 µM (inactive) | > 100 µM (inactive) | > 100 µM (inactive) | > 100 µM (inactive) | > 100 µM (inactive) | > 100 µM (inactive) | > 100 µM (inactive) | > 100 µM (inactive) | > 100 µM (inactive) | > 100 µM (inactive) | > 100 | > 100 µM (inactive) | > 100 µM (inactive) | > 100 µM (inactive) | > 100 µM (inactive) | > 100 µM (inactive)
O=c1oc2ccc3ccccc3c2cc1-c1cn2ccsc2n1 | 19.2 µM (inactive) | 17.9 µM (inactive) | 51.5 µM (inactive) | 16.2 µM (inactive) | 17.8 µM (inactive) | 16.7 µM (inactive) | 22.4 µM (inactive) | 16.8 µM (inactive) | > 100 µM (inactive) | 17.3 µM (inactive) | 20.6 µM (inactive) | 13 µM (inactive) | 20.7 µM (inactive) | 3.41 µM (inactive) | 16 | 15.8 µM (inactive) | 45.1 µM (inactive) | 28.4 µM (inactive) | 11.5 µM (inactive) | > 100 µM (inactive)
Nc1nc(Cl)cc(Oc2ccc(Cl)cc2)n1 | > 73.6 µM (inactive) | > 59 µM (inactive) | > 54.7 µM (inactive) | 29.9 µM (inactive) | > 68.9 µM (inactive) | > 55.2 µM (inactive) | > 57.3 µM (inactive) | > 58.6 µM (inactive) | > 55.2 µM (inactive) | > 100 µM (inactive) | > 100 µM (inactive) | 23.2 µM (inactive) | > 50.7 µM (inactive) | > 60.5 µM (inactive) | > 57.4 | > 48.3 µM (inactive) | > 53.7 µM (inactive) | > 51.9 µM (inactive) | > 55.6 µM (inactive) | > 53.7 µM (inactive)
O=C(/C=C/c1cccc(Br)c1)c1ccc(Cl)cc1 | 17 µM (inactive) | 14.3 µM (inactive) | 16.9 µM (inactive) | 14.8 µM (inactive) | 14.3 µM (inactive) | 18.8 µM (inactive) | 6.25 µM (inactive) | 2.95 µM (inactive) | 21.1 µM (inactive) | 17.8 µM (inactive) | 11.8 µM (inactive) | 15 µM (inactive) | 16.6 µM (inactive) | 5.93 µM (inactive) | 14.8 | 12.6 µM (inactive) | 22.7 µM (inactive) | 17.2 µM (inactive) | 2.08 µM (inactive) | 16.3 µM (inactive)
CC1CCCC(C(=O)CC2CC(=O)NC(=O)C2)C1=O (stereo not given) | > 100 µM (inactive) | > 100 µM (inactive) | > 100 µM (inactive) | > 100 µM (inactive) | > 100 µM (inactive) | > 100 µM (inactive) | > 100 µM (inactive) | > 100 µM (inactive) | > 100 µM (inactive) | > 100 µM (inactive) | > 100 µM (inactive) | > 100 µM (inactive) | > 100 µM (inactive) | > 100 µM (inactive) | > 100 | > 100 µM (inactive) | > 100 µM (inactive) | > 100 µM (inactive) | > 100 µM (inactive) | > 100 µM (inactive)
COC1=CC(=O)c2c(cc(COP(N)(=O)N(CCCl)CCCl)n2C)C1=O (stereo not given) | 0.433 µM (active) | 0.0277 µM (active) | 0.123 µM (active) | 0.721 µM (active) | 0.302 µM (active) | 0.446 µM (active) | 1.61 µM (inactive) | 0.158 µM (active) | 1.02 µM (active) | 0.457 µM (active) | 1.49 µM (inactive) | 1.41 µM (inactive) | 0.0785 µM (active) | 0.0141 µM (active) | 1.13 | 0.0284 µM (active) | 8.26 µM (inactive) | < 0.0241 µM (active) | 1.37 µM (inactive) | 2.64 µM (inactive)

Reference: ChEMBL document CHEMBL1201862, “PubChem BioAssay data set” (2004)
